How the values were obtained:
Septoria tritici = assay: Example C2: mixtures against Septoria tritici (leaf blotch), liquid culture; assay type: cell-based; conditions: single component; for inhibition at 0.3 ppm: read-out: Activity (%)
From the text: (§1) Certain mixture compositions comprising a compound of formula (I) described above may show a synergistic effect. This occurs whenever the action of an active ingredient combination is greater than the sum of the actions of the individual components. The action to be expected E for a given active ingredient combination obeys the so-called COLBY formula and can be calculated as follows (COLBY, S. R. “Calculating synergistic and antagonistic responses of herbicide combination”. Weeds, Vol. 15, pages 20-22; 1967): • ppm=milligrams of active ingredient (=a.i.) per liter of spray mixture • X=% action by active ingredient A) using p ppm of active ingredient • Y=% action by active ingredient B) using q ppm of active ingredient.
(§2) According to COLBY, the expected (additive) action of active ingredients A)+B) using p+q ppm of active ingredient is:
(§3) If the action actually observed (O) is greater than the expected action (E), then the action of the combination is super-additive, i.e. there is a synergistic effect. In mathematical terms, synergism corresponds to a positive value for the difference of (O-E). In the case of purely complementary addition of activities (expected activity), said difference (O-E) is zero. A negative value of said difference (O-E) signals a loss of activity compared to the expected activity.
(§4) Mycelia fragments or conidia suspensions of a fungus prepared either freshly from liquid cultures of the fungus or from cryogenic storage, are directly mixed into nutrient broth. DMSO solutions of the test compound (max. 10 mg/mL) are diluted with 0.025% Tween20 by a factor of 50 and 10 μl of this solution is pipetted into a microtiter plate (96-well format). The nutrient broth containing the fungal spores/mycelia fragments is then added to give an end concentration of the tested compound. The test plates are incubated in the dark at 24° C. and 96% relative humidity. The inhibition of fungal growth is determined photometrically after 2 to 7 days, depending on the pathosystem, and percent antifungal activity relative to the untreated check is calculated.
(§5) Conidia of the fungus from cryogenic storage were directly mixed into nutrient broth (PDB potato dextrose broth). A DMSO solution of the test compounds was placed into a microtiter plate (96-well format) and the nutrient broth containing the fungal spores was added to it.
(§6) The following mixture compositions at the reported concentration (in ppm) in tables C2-3 to C2-5 gave the following disease control in this test Septoria tritici (leaf blotch). Fungicidal activity was evaluated on a 100-0 scale (100=no disease growth; 0=well completely covered by mycelium).

Septoria glycines = assay: Example C3: mixtures against Septoria glycines (brown spot), liquid culture; assay type: cell-based; conditions: single component; for inhibition at 0.1 ppm / inhibition at 0.3 ppm: read-out: Activity (%)
From the text: This occurs whenever the action of an active ingredient combination is greater than the sum of the actions of the individual components. The action to be expected E for a given active ingredient combination obeys the so-called COLBY formula and can be calculated as follows (COLBY, S. R. “Calculating synergistic and antagonistic responses of herbicide combination”. Weeds, Vol. 15, pages 20-22; 1967): • ppm=milligrams of active ingredient (=a.i.) per liter of spray mixture • X=% action by active ingredient A) using p ppm of active ingredient • Y=% action by active ingredient B) using q ppm of active ingredient.
as §2, §3
as §4, with “The nutrient broth containing the fungal spores/mycelia fragments is then added to give an end concentration of the tested compound.” left out
as §5, with “fungus harvested” for “fungus”, “a fresh culture grown on artificial media,” for “cryogenic storage”
Fungicidal activity was evaluated on a 100-0 scale (100=no disease growth; 0=well completely covered by mycelium).

[1] = tested on: Glomerella lagenarium syn. Colletotrichum lagenarium; assay: Example C4: mixtures against Glomerella lagenarium syn. Colletotrichum lagenarium (anthracnose), liquid culture; assay type: cell-based; conditions: single component; for inhibition at 0.3 ppm / inhibition at 0.1 ppm: Colletotrichum orbiculare
From the text: as §1, §2, §3, §4, §5
as §6, with “C4-3 and C4-4” for “C2-3 to C2-5”, “(Glomerella lagenarium syn. Colletotrichum lagenarium).” for “Septoria tritici (leaf blotch).”

[2] = tested on: Mycosphaerella arachidis syn. Cercospora arachidicola; assay: Example C1: mixtures against Mycosphaerella arachidis syn. Cercospora arachidicola (brown leaf spot), liquid culture; assay type: cell-based; conditions: single component, 100-0 scale (100=no disease growth)
From the text: as §1, §2, §3, §4, §5
as §6, with “C1-3 and C1-4” for “C2-3 to C2-5”, “Mycosphaerella arachidis syn. Cercospora arachidicola (Brown leaf spot of peanut).” for “Septoria tritici (leaf blotch).”

Corynespora cassiicola = assay: Example C5: mixtures against Corynespora cassiicola (target leaf spot), liquid culture; assay type: cell-based; conditions: single component
From the text: as §1, §2, §3, §4
as §5, with “it. The test plates were incubated at 24 C and the inhibition of growth was determined photometrically after 3-4 days at 620 nm.” for “it.”
The following mixture compositions at the reported concentration (in ppm) in tables C4-3 and C4-4 gave the following disease control in this test (Corynespora cassiicola). Fungicidal activity was evaluated on a 100-0 scale (100=no disease growth; 0=well completely covered by mycelium).

[3] = tested on: Puccinia recondita (Brown rust); assay: Example B: comparative biological activity against Puccinia recondita (brown rust), curative, wheat leaf segments; assay type: in vivo; conditions: 8 dpi
Method: Method; Wheat leaf segments are placed on agar in multiwell plates (24-well format). The leaf segments are inoculated with a spore suspension of the fungus and sprayed with test solutions 1 day after inoculation. After appropriate incubation the activity of a compound is assessed 8 dpi (days after inoculation) as curative fungicidal activity.
The data are presented as the percentage of disease control of each compound for the biological tests and testing rates described below in table B1.

Phakopsora pachyrhizi = assay: Example D: preventative activity against Phakopsora pachyrhizi on soybean (whole plants sprayed, leaf disks inoculated); assay type: in vivo; conditions: applied alone; for inhibition at 450 g/ha / inhibition at 900 g/ha: Phakopsora pachyrhizi, foliar, read-out: Observed Activity (% of untreated)
From the text: as §1, §2, §3
Whole soybean plants are treated with the recited active ingredients 4 weeks after planting. 1 day after spraying leaf disks are cut from the first trifoliate leaf. Five repetitions at each rate are conducted. The leaf disks are inoculated with Phakopsora pachyrhizi (Asian soybean rust) one day after treatment. Evaluation of the leaf disks is conducted 11 to 14 days after inoculation and the activity is derived from the relation of the treated vs untreated, infested check. (100=no disease, no damage to the leaf, 0=high infestation, leaf damaged heavily). The rates of the active ingredients used are given in the tables as g active ingredient (a.i.)/ha.

[4] = 0.1 ppm, 100-0 scale (100=no disease growth)
[5] = Zymoseptoria tritici, 0.3 ppm, 100-0 scale
[6] = Septoria glycines, 0.1 ppm, 100-0 scale (100=no disease growth)
[7] = Septoria glycines, 0.3 ppm, 100-0 scale (100=no disease growth)
[8] = 0.3 ppm, 100-0 scale (100=no disease growth)

In the case of `Cn1cc(C(=O)Nc2cccc3c2[C@@H]2CC[C@H]3C2=C(Cl)Cl)c(C(F)F)n1` (racemic) [benzovindiflupyr], the “Activity (%)” value (Septoria tritici; [4]) is reported as 50%, the “Activity (%)” value (Septoria tritici; 0.3 ppm, 100-0 scale) is reported as 70% and the “Activity (%)” value (Septoria glycines; 0.1 ppm) is reported as 70%. The “Activity (%)” value (Septoria glycines; [4]) was 70% and the “Activity (%)” value ([1]; 0.1 ppm) was 50%.
Compound `CC(O)(Cn1cncn1)c1ccc(Oc2ccc(Br)cc2)nc1C(F)(F)F` (stereo not drawn) [2-[6-(4-bromophenoxy)-2-(trifluoromethyl)-3-pyridyl]-1-(1,2,4-triazol-1-yl)propan-2-ol] has an inhibition at 0.3 ppm ([1]; 0.3 ppm) of 0%.
With `COc1ccnc(C(=O)N[C@@H](C)C(=O)O[C@@H](C)C(c2ccc(F)cc2)c2ccc(F)cc2)c1OC(C)=O` [Florylpicoxamid, reference compound] the “Activity (%)” value ([2]; 0.01 ppm) was 50%, the “Activity (%)” value ([2]; 0.02 ppm) was 90% and the “Activity (%)” value (Septoria tritici; 0.01 ppm, 100-0 scale) was 70%. For the same compound, the “Activity (%)” value (Septoria tritici; 0.02 ppm, 100-0 scale) was 90%, the “Activity (%)” value (Septoria glycines; 0.01 ppm) was 0% and the “Activity (%)” value (Septoria glycines; 0.02 ppm) was 0%. For the same compound, the “Activity (%)” value ([1]; 0.1 ppm) was 20% and the “Activity (%)” value (Corynespora cassiicola; 0.02 ppm) was 0%.
`O=C(Nc1ccccc1F)c1ccc(-c2noc(C(F)(F)F)n2)cc1` [N-(2-fluorophenyl)-4-[5-(trifluoromethyl)-1,2,4-oxadiazol-3-yl]benzamide] showed an inhibition at 10 ppm (Septoria tritici; Zymoseptoria tritici, 10 ppm, 100-0 scale) of 0%, an inhibition at 20 ppm (Septoria tritici; Zymoseptoria tritici, 20 ppm, 100-0 scale) of 0% and an inhibition at 10 ppm (Corynespora cassiicola; Corynespora cassiicola, 10 ppm) of 0%. It also gave an inhibition at 20 ppm (Corynespora cassiicola; Corynespora cassiicola, 20 ppm) of 0%.
With `CO/C=C(\Oc1cc(C#CC2CCCCC2)ccc1C)C(=O)OC` [Reference Compound Z-1, reference compound] the “control (%)” value ([3]; 20 ppm) was 0%, the “control (%)” value ([3]; 60 ppm) was 0% and the “control (%)” value ([3]; 200 ppm) was 0%.
For `CO/C=C(\Oc1cccc(C(C)(C)C)c1)C(=O)OC` [Reference Compound Z-2, reference compound], the “control (%)” value ([3]; 20 ppm) was 0%, the “control (%)” value ([3]; 60 ppm) was 0% and the “control (%)” value ([3]; 200 ppm) was 0%.
For `CCC(=O)Oc1c(OC)ccnc1C(=O)N[C@@H](C)C(=O)O[C@@H](C)[C@@H](C)c1ccccc1C` [[(1S,2S)-1-methyl-2-(o-tolyl)propyl] (2S)-2-[(4-methoxy-3-propanoyloxy-pyridine-2-carbonyl)amino]propanoate, reference compound], the inhibition at 0.03 ppm ([2]; Mycosphaerella arachidis, 0.03 ppm) was 70%, the inhibition at 0.03 ppm (Septoria tritici; Zymoseptoria tritici, 0.03 ppm, 100-0 scale) was 50% and the inhibition at 0.06 ppm (Septoria tritici; Zymoseptoria tritici, 0.06 ppm, 100-0 scale) was 70%. For the same compound, the inhibition at 0.03 ppm (Septoria glycines; Septoria glycines, 0.03 ppm) was 0%, the inhibition at 0.06 ppm (Septoria glycines; Septoria glycines, 0.06 ppm) was 0% and the inhibition at 0.03 ppm (Corynespora cassiicola; Corynespora cassiicola, 0.03 ppm) was 0%. The inhibition at 0.06 ppm (Corynespora cassiicola; Corynespora cassiicola, 0.06 ppm) was 0%.
With `Cc1ccc(C(=O)OCc2ccc(Oc3ccccc3)cc2)c(N)n1` [aminopyrifen] the “Activity (%)” value ([1]; 0.1 ppm) was 20% and the “Activity (%)” value ([1]; 0.3 ppm) was 50%.
Compound `N#Cc1c(Cl)c(Cl)c(Cl)c(C#N)c1Cl` [chlorothalonil, reference compound] has an inhibition at 0.1 ppm ([2]; Mycosphaerella arachidis, 0.1 ppm) of 20%, an inhibition at 0.1 ppm (Septoria tritici; Zymoseptoria tritici, 0.1 ppm, 100-0 scale (100=no disease growth)) of 20% and an inhibition at 0.3 ppm (Septoria tritici; [5]) of 50%. It also gave an inhibition at 0.1 ppm (Septoria glycines; [6]) of 0%, an inhibition at 0.3 ppm (Septoria glycines; [7]) of 20% and an inhibition at 450 g/ha (Phakopsora pachyrhizi; 450 g/ha) of 8%. The inhibition at 900 g/ha (Phakopsora pachyrhizi) was 7%.
`COc1ccnc(C(=O)N[C@H]2COC(=O)[C@H](Cc3ccccc3)[C@@H](OC(=O)C(C)C)[C@H](C)OC2=O)c1OCOC(=O)C(C)C` [fenpicoxamid] was tested, and the “Activity (%)” value ([1]; 0.1 ppm) was 20% and the “Activity (%)” value ([1]; 0.3 ppm) was 70%.
Compound `O=C1c2ccccc2C(=O)N1SC(Cl)(Cl)Cl` [folpet, reference compound] has an inhibition at 0.3 ppm ([2]; Mycosphaerella arachidis, 0.3 ppm) of 20%, an inhibition at 0.3 ppm (Septoria tritici; [5]) of 20% and an inhibition at 0.1 ppm (Septoria glycines; [6]) of 0%. It also gave an inhibition at 0.3 ppm (Septoria glycines; [7]) of 0%, an inhibition at 0.1 ppm ([1]; 0.1 ppm) of 20% and an inhibition at 0.3 ppm ([1]; 0.3 ppm) of 70%. It also gave an inhibition at 450 g/ha (Phakopsora pachyrhizi; 450 g/ha) of 4% and an inhibition at 900 g/ha (Phakopsora pachyrhizi) of 13%.
In the case of `Cc1nc2c(F)c(F)ccc2cc1Oc1cccc(F)c1C(C)(C)O` [ipflufenoquin, reference compound], the “Activity (%)” value ([2]; 0.3 ppm) is reported as 0%, the “Activity (%)” value (Septoria tritici; [4]) is reported as 20% and the “Activity (%)” value (Septoria tritici; 0.3 ppm, 100-0 scale) is reported as 20%. The “Activity (%)” value (Septoria glycines; 0.1 ppm) was 0%, the “Activity (%)” value (Septoria glycines; [4]) was 0% and the “Activity (%)” value (Septoria glycines; 0.3 ppm) was 20%. The “Activity (%)” value (Septoria glycines; [8]) was 20% and the “Activity (%)” value ([1]; 0.1 ppm) was 50%.
For `CC(O)(Cn1cncn1)c1ccc(Oc2ccc(Cl)cc2)cc1C(F)(F)F` (stereo not drawn) [mefentrifluconazole], the “Activity (%)” value ([1]; 0.3 ppm) was 0%.
`OC(Cc1ccccc1Cl)(Cn1nc[nH]c1=S)C1(Cl)CC1` (stereo not drawn) [prothioconazole] gave an inhibition at 0.1 ppm ([1]; 0.1 ppm) of 20% and an inhibition at 0.3 ppm ([1]; 0.3 ppm) of 70%.
mancozeb [reference compound] was tested, and the “Activity (%)” value ([2]; 0.1 ppm) was 0%, the “Activity (%)” value ([2]; 0.3 ppm) was 0% and the “Activity (%)” value (Septoria glycines; [4]) was 0%. The “Activity (%)” value (Septoria glycines; [8]) was 0%, the “Activity (%)” value ([1]; 0.1 ppm) was 0% and the “Activity (%)” value ([1]; 0.3 ppm) was 20%. The “Observed Activity (% of untreated)” value (Phakopsora pachyrhizi; 225 g/ha) was 27% and the “Observed Activity (% of untreated)” value (Phakopsora pachyrhizi; 450 g/ha) was 39%.

From US12532884B2, “Fungicidal compositions” (SYNGENTA CROP PROTECTION AG, priority 2020, dated 2026)
